Key:
KARS1 and 37LR = biological target: T1, KARS1 and 37LR (Homo sapiens, UniProt Q15046); test: Cell-free ELISA of KARS1 and 37LR (laminin receptor) binding; settings: 10 µM compound, 1 hour, plate coated with KARS1 (1-207aa), LRF
T1 construct: KARS1 (1-207aa)
Experimental: Next, based on the mechanism of action, a cell-free ELISA analysis was conducted to select compounds with high inhibitory activity on the binding of KARS1 and LR (laminin receptor).

Raw 264.7 cells = test: LN (Laminin 421)-induced immune cell migration, Transwell; assay type: cell-based; settings: Mus musculus, RAW264.7; 3 µM compound, LN (Laminin 421 1 µg/ml), 24 hours, % inhibition compared to control group; read-out: Migration inhibitor % (3uM)
Experimental: Cell migration was assessed based on the method described in the prior literature (Park, S. G. et al. Human lysyl-tRNA synthetase is secreted to trigger proinflammatory response. Proceedings of the National Academy of Sciences, 2005, 102.18: 6356-6361.). The specific experimental method is as follows. A Transwell (Corning#3421-5µm pore) was coated with gelatin (0.5mg/ml), and then Raw 264.7 cells (1 x 10^5 cells/well) were seeded in the upper chamber. Serum-free medium (Serum Free DMEM, 500 µl) containing LN (Laminin 421 1 µg/ml) was added to the lower chamber. Each compound was treated at a concentration of 3µM in the upper chamber. After 24 hours, the cells were fixed with 70% methanol for 30 minutes and stained with 50% hematoxylin for 30 minutes. Non-migrating cells on the upper side of the membrane were removed with a cotton swab, and the membrane was mounted on a slide. Migrating cells on the lower side of the membrane were observed under a high-power microscope, and the number of cells was measured from the obtained images and expressed as the inhibition rate (% inhibition) compared to the control group.

Raw264.7 cells = test: KARS1-induced trans-migration assay; assay type: cell-based, mouse; settings: for inhibition at 1 µM: 1 µM compound, read-out: KARS1-induced Raw264.7 cell migration (% inhibition, 1uM)
Experimental: C0001 inhibits the binding of KARS1 and 67LR, thereby blocking the migration of monocytes/macrophages and suppressing inflammation. Accordingly, a trans-migration assay using mouse macrophages (Raw264.7) was conducted to preliminarily screen drugs that inhibit the migration of monocytes/macrophages.
Based on this, when KARS1 protein was directly treated externally instead of LN, the trans-migration of Raw264.7 was induced, and the cell migration inhibitory effect of the KARS1 inhibitor C0001 was confirmed. It was verified that C0001, which specifically binds to KARS1, can inhibit cell migration by binding to extracellular KARS1, in addition to the mechanism of inhibiting cell membrane migration of KARS1 induced by laminin and its binding to 67LR, thereby enabling this analysis to be used as a direct method for evaluating in vitro activity against KARS1.
Next, preliminary candidate substances with high inhibitory activity at 1 µM were treated at concentrations of 0.1~4 µM for analysis.

T1 sequence (Q15046 1-207): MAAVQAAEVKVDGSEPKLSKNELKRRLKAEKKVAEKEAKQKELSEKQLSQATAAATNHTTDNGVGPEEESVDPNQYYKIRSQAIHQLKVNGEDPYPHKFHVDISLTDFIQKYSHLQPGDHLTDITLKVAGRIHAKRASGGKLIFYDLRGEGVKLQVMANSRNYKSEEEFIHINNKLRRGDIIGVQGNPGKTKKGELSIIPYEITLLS

| Compound | inhibition at 10 µM (KARS1 and 37LR) [%] | inhibition at 3 µM (Raw 264.7 cells) [%] | inhibition at 1 µM (Raw264.7 cells; Mus musculus, RAW264.7) [%] | times higher activity compared to C0001 (Raw264.7 cells; EC50, KARS1-induced cell migration) | EC50 (Raw264.7 cells; Mus musculus, RAW264.7, KARS1-induced cell migration, 0.1~4 µM) [nM] |
| --- | --- | --- | --- | --- | --- |
| COc1ccc(CCN(Cc2ccc(-c3ccccc3)cc2)c2nc3cccnc3s2)cc1 [Compound 1, N-([1,1'-biphenyl]-4-ylmethyl)-N-(4-methoxyphenethyl)thiazolo[5,4-b]pyridin-2-amine] | -6 | 8.8 | 19.8 | – | – |
| COc1ccc(CCN(Cc2ccc(CCC(=O)O)cc2)c2nc3cccc(F)c3s2)cc1 [Compound 2, 3-(4-(((7-fluorobenzo[d]thiazol-2-yl)(4-methoxyphenethyl)amino)-methyl)phenyl)propanoic acid] | 79.4 | 15.7 | 98.1 | – | – |
| CCN(CC)C(=O)C#Cc1ccc(CN(CCc2ccc(OC)cc2)c2nc3cccc(F)c3s2)cc1 [Compound 3, N,N-diethyl-3-(4-(((7-fluorobenzo[d]thiazol-2-yl)(4-methoxyphenethyl)amino)methyl)phenyl)propiolamide] | 4.7 | 0 | 22.6 | – | – |
| CNC(=O)C#Cc1ccc(CN(CCc2ccc(OC)cc2)c2nc3cccc(F)c3s2)cc1 [Compound 4, 3-(4-(((7-fluorobenzo[d]thiazol-2-yl)(4-methoxyphenethyl)amino)-methyl)phenyl)-N-methylpropiolamide] | 13.8 | 88 | 9.8 | – | – |
| COc1ccc(CCN(Cc2ccc(C#CC(N)=O)cc2)c2nc3cccc(F)c3s2)cc1 [Compound 5, 3-(4-(((7-fluorobenzo[d]thiazol-2-yl)(4-methoxyphenethyl)amino)-methyl)phenyl)propiolamide] | 0.8 | 77.7 | 95.6 | – | – |
| COc1ccc(CCNc2ncc3ccn(C)c3n2)cc1 [Compound 6, N-(4-methoxyphenethyl)-7-methyl-7H-pyrrolo[2,3-d]pyrimidin-2-amine] | 14.8 | 5.1 | 23.5 | – | – |
| COc1ccc(CCN(Cc2ccc(Br)cc2)c2ncc3ccn(C)c3n2)cc1 [Compound 7, N-(4-bromobenzyl)-N-(4-methoxyphenethyl)-7-methyl-7H-pyrrolo[2,3-d]pyrimidin-2-amine] | 9.5 | 10.9 | 39.1 | – | – |
| COc1ccc(CCN(Cc2cccc(C#C[Si](C)(C)C)c2)c2nc3cccc(F)c3s2)cc1 [Compound 8, 7-fluoro-N-(4-methoxyphenethyl)-N-(3-((trimethylsilyl)ethynyl)-benzyl)benzo[d]thiazol-2-amine] | 13.4 | 27 | – | – | – |
| C#Cc1cccc(CN(CCc2ccc(OC)cc2)c2nc3cccc(F)c3s2)c1 [Compound 9, N-(3-ethynylbenzyl)-7-fluoro-N-(4-methoxyphenethyl)benzo[d]thiazol-2-amine] | 8.5 | 0 | – | – | – |
| COc1ccc(CCN(Cc2ccc(C#C[Si](C)(C)C)cc2)c2ncc3ccn(C)c3n2)cc1 [Compound 10, N-(4-methoxyphenethyl)-7-methyl-N-(4-((trimethylsilyl)ethynyl)-benzyl)-7H-pyrrolo[2,3-d]pyrimidin-2-amine] | 9.8 | 0 | 11.7 | – | – |
| COc1ccc(CCN(Cc2nc3cc(C(=O)O)ccc3o2)c2nc3cccc(F)c3s2)cc1 [Compound 28, 2-(((7-fluorobenzo[d]thiazol-2-yl)(4-methoxyphenethyl)amino)-methyl)benzo[d]oxazole-5-carboxylic acid] | – | 16.4 | 43.2 | – | – |
| COc1ccc(CCN(Cc2ccc3c(c2)CNC3)c2nc3cccc(F)c3s2)cc1 [Compound 29, 7-fluoro-N-(isoindolin-5-ylmethyl)-N-(4-methoxyphenethyl)benzo-[d]thiazol-2-amine] | – | 33 | 4.1 | – | – |
| COc1ccc(CCN(Cc2ccc3c(c2)CN(S(N)(=O)=O)C3)c2nc3cccc(F)c3s2)cc1 [Compound 31, 5-(((7-fluorobenzo[d]thiazol-2-yl)(4-methoxyphenethyl)amino)-methyl)isoindoline-2-sulfonamide] | – | 72.8 | 28.3 | – | – |
| COc1ccc(CCN(Cc2ccc(-n3ccc(C(=O)O)c3)cc2)c2nc3cccc(F)c3s2)cc1 [Compound 34, 1-(4-(((7-fluorobenzo[d]thiazol-2-yl)(4-methoxyphenethyl)amino)-methyl)phenyl)-1H-pyrrole-3-carboxylic acid] | – | 13 | 99.4 | – | – |
| COc1ccc(CCN(Cc2ccc(C3(C(=O)O)CCC3)cc2)c2nc3cccc(F)c3s2)cc1 [Compound 36, 1-(4-(((7-fluorobenzo[d]thiazol-2-yl)(4-methoxyphenethyl)amino)-methyl)phenyl)cyclobutane-1-carboxylic acid] | – | 21.8 | 96.8 | – | – |
| COc1ccc(CCN(Cc2ccc(N3CC[C@@H](C(=O)O)C3)cc2)c2nc3ccccc3o2)cc1 [Compound 37, (R)-1-(4-((benzo[d]oxazol-2-yl(4-methoxyphenethyl)amino)methyl)-phenyl)pyrrolidine-3-carboxylic acid] | – | 19.3 | 50.6 | – | – |
| COc1ccc(CCN(Cc2ccc(N3CC[C@H](C(=O)O)C3)cc2)c2nc3ccccc3o2)cc1 [Compound 38, (S)-1-(4-((benzo[d]oxazol-2-yl(4-methoxyphenethyl)amino)methyl)-phenyl)pyrrolidine-3-carboxylic acid] | – | 15.3 | 40.4 | – | – |
| COc1ccc(CCN(Cc2ccc(C#CC(=O)O)cc2)c2nc3cccnc3o2)cc1 [Compound 44, 3-(4-(((4-methoxyphenethyl)(oxazolo[5,4-b]pyridin-2-yl)amino)-methyl)phenyl)propiolic acid] | – | 1.1 | – | – | – |
| COc1ccc(CCN(Cc2ccc(C#CC(=O)O)cc2)c2nc3ccc(=O)[nH]c3s2)cc1 [Compound 45, 3-(4-(((4-methoxyphenethyl)(5-oxo-4,5-dihydrothiazolo[5,4-b]pyridin-2-yl)amino)methyl)phenyl)propiolic acid] | – | 7.8 | 39.8 | – | – |
| COc1ccc(CCN(Cc2ccc(N3CCC(C(=O)O)CC3)cc2)c2nc3cccc(F)c3s2)cc1 [Compound 46, 1-(4-(((7-fluorobenzo[d]thiazol-2-yl)(4-methoxyphenethyl)amino)-methyl)phenyl)piperidine-4-carboxylic acid] | – | – | 90.9 | – | – |
| COc1ccc(CCN(Cc2ccc(-n3cc(C(=O)O)cn3)cc2)c2nc3cccc(F)c3s2)cc1 [Compound 47, 1-(4-(((7-fluorobenzo[d]thiazol-2-yl)(4-methoxyphenethyl)amino)-methyl)phenyl)-1H-pyrazole-4-carboxylic acid] | – | – | 99.7 | approximately 10 times | 80 |
| NC(=O)c1ccc(CCN(Cc2ccc(N3CC[C@H](C(=O)O)C3)cc2)c2nc3cccc(F)c3s2)cc1 [Compound 48, (S)-1-(4-(((4-carbamoylphenethyl)(7-fluorobenzo[d]thiazol-2-yl)amino)methyl)phenyl)pyrrolidine-3-carboxylic acid] | – | – | 36.6 | – | – |
| O=C(O)[C@H]1CCN(c2ccc(CN(CCn3ccccc3=O)c3nc4cccc(F)c4s3)cc2)C1 [Compound 49, (S)-1-(4-(((7-fluorobenzo[d]thiazol-2-yl)(2-(2-oxopyridin-1(2H)-yl)ethyl)amino)methyl)phenyl)pyrrolidine-3-carboxylic acid] | – | – | 34.8 | – | – |
